# Like-named read-outs stand apart in the source and are kept apart here.
# Legend:
# Candida albicans [1] = conditions: CLSI, cited from earlier work
# Candida albicans [2] = experiment: MALDI-TOF MS minimal profile change concentration (MPCC) determination; type: cell-based; conditions: for FCZ MPCCs: 15 h culture, MALDI-TOF MS
# Procedure: Fluconazole (FCZ) pure powder (Sigma Chemical CO., Saint-Louis, Mo., USA) was dissolved in pure water. Serial dilutions of drug (concentration ranged from 256 to 0.25 μg/ml), made into RPMI 1640 medium (with glutamine and without bicarbonate, Invitrogen) buffered with MOPS (0.165M) (Sigma Chemical CO., Saint-Louis, Mo., USA) and adjusted to pH 7 with sodium hydroxide (5N), were dispensed in 600 μl aliquots into sterile 24-well flat-bottomed microtiter plates.
# After cultivation during 48 h at 37° C. on Sabouraud agar medium, yeasts cells were transferred into RPMI 1640 medium (with glutamine but without bicarbonate, Invitrogen) buffered with MOPS (0.165M) (Sigma Chemical CO., Saint-Louis, Mo., USA), and adjusted to pH 7 with sodium hydroxide (5N). Then, 600 μl of RPMI with yeast (2.106 yeasts/imp were added to 600 μl of RPMI with FCZ into microtiter plates (final FCZ concentration ranged from 128 to 0.125 μg/ml), or in RPMI alone as negative control. Culture was performed in a 30° C. incubator for 15 hours, with continuous agitation.
# Yeast extraction was performed as follows: • (1) samples were centrifuged and the supernatant removed before the pellet was washed twice in pure water; • (2) the pellet was then resuspended in 300 μL of pure water, and 900 μL of ethanol were then added; • (3) after another round of centrifugation, 50 μL of 70% formic acid and 50 μL pure acetonitrile were added to the residual pellet and subsequent solution was repeatedly and thoroughly vortexed before a final centrifugation. Each centrifugation was performed at 10 000 rpm for 10 minutes at room temperature.
# The supernatant was distributed (0.5 μl droplet) in duplicate on a MALDI AnchorChip sample slide (Bruker-Daltonics, Bremen, Germany), then air-dried. The α-cyano-4-hydroxycinnamic acid (CHCA) matrix (Bruker-Daltonics), prepared at a concentration of 50 mg/ml in 50% acetonitrile and 50% water with 0.1% TFA, was sonicated for 5 min before being spotted (0.5 μl) over the dried sample. A DH5a Escherichia coil protein extract (Bruker-Daltonics) was deposited on the calibration spot of the Anchorchip for external calibration. MALDI analysis were performed on a Bruker Autoflex I MALDI TOF mass spectrometer with a nitrogen laser (337 nm) operating in linear mode with delayed extraction (260 ns) at 20 kV accelerating voltage. Each spectrum was automatically collected in the positive ion mode as an average of 500 laser shots (50 laser shots at 10 different spot positions). Laser energy was set just above the threshold for ion production. Mass range between 3,000 and 20,000 m/z (ratio mass/charge) was selected to collect the signals with the AutoXecute tool of flexControl acquisition software (Version 2.4; Bruker-Daltonics). Only peaks with a signal/noise ratio >3 were considered. […] For each cultivation condition, we collected mass spectra from 3 biological replicates and 2 technical replicates.
# Data obtained from the flex control acquisition software were a set of lists of mass/charge peaks and corresponding intensities, one list for each spectrum. For each FCZ concentration (11 FCZ concentrations and without FCZ), 6 spectra, obtained from 3 biological replicates tested in duplicate, were collected, so the whole initial set of data consisted of 72 spectra.
# Alignment was performed using a method based on the mean spectrum, using an approach similar to that recommended by Coombes et al. (Coombes K R, Baggerly K A, and Morris J S: Pre-Processing Mass Spectrometry Data. Fundamentals of Data Mining in Genomics and Proteomics, W Dubitzky, M Granzow, and D Berrar, eds. Kluwer, Boston, 79-99 (2007)).
# The mean spectrum of the 72 spots was computed, a simple peak detection algorithm was run on the mean spectrum, and a selection of the final peak locations was based on the mean intensity of the peak. For each spectrum, the peaks corresponding to the final peak locations were retained for the statistical analysis. […]
# [3] = C. albicans clinical isolate DSY281 (group A)
# [4] = C. albicans clinical isolate DSY284 (group A)
# [5] = C. albicans clinical isolate DSY289 (group F)
# [6] = C. albicans clinical isolate DSY290 (group G)
# [7] = C. albicans clinical isolate DSY292 (group G)
# [8] = C. albicans clinical isolate DSY 294 (group B)
# [9] = C. albicans clinical isolate DSY296 (group B)
# [10] = C. albicans clinical isolate DSY347 (group F)
# [11] = C. albicans clinical isolate DSY544 (group C)
# [12] = C. albicans clinical isolate DSY2260 (group D)
# [13] = C. albicans clinical isolate DSY2262 (group D)
# [14] = C. albicans clinical isolate DSY2284 (group H)
# [15] = C. albicans clinical isolate DSY2285 (group H)
# [16] = C. albicans clinical isolate DSY2321 (group E)
# [17] = C. albicans clinical isolate DSY2322 (group E)
# [18] = C. albicans clinical isolate DYS775 (group C)
# [19] = C. albicans reference strain ATCC 90028
smiles,measurement,setting,value
"OC(Cn1cncn1)(Cn1cncn1)c1ccc(F)cc1F [FCZ, Fluconazole]",FCZ MICs,Candida albicans [1]; [3],1 µg/mL
same,FCZ MICs,Candida albicans [1]; [4],32 µg/mL
same,FCZ MICs,Candida albicans [1]; [5],128 µg/mL
same,FCZ MICs,Candida albicans [1]; [6],0.5 µg/mL
same,FCZ MICs,Candida albicans [1]; [7],128 µg/mL
same,FCZ MICs,Candida albicans [1]; [8],0.25 µg/mL
same,FCZ MICs,Candida albicans [1]; [9],128 µg/mL
same,FCZ MICs,Candida albicans [1]; [10],0.25 µg/mL
same,FCZ MICs,Candida albicans [1]; [11],0.5 µg/mL
same,FCZ MICs,Candida albicans [1]; [12],8 µg/mL
same,FCZ MICs,Candida albicans [1]; [13],64 µg/mL
same,FCZ MICs,Candida albicans [1]; [14],0.25 µg/mL
same,FCZ MICs,Candida albicans [1]; [15],16 µg/mL
same,FCZ MICs,Candida albicans [1]; [16],0.25 µg/mL
same,FCZ MICs,Candida albicans [1]; [17],16 µg/mL
same,FCZ MICs,Candida albicans [1]; [18],128 µg/mL
same,FCZ MICs,Candida albicans [1]; [19],0.25 µg/mL
same,FCZ MPCCs,Candida albicans [2]; [3],0.5 µg/mL
same,FCZ MPCCs,Candida albicans [2]; [4],8 µg/mL
same,FCZ MPCCs,Candida albicans [2]; [5],128 µg/mL
same,FCZ MPCCs,Candida albicans [2]; [6],0.25 µg/mL
same,FCZ MPCCs,Candida albicans [2]; [7],128 µg/mL
same,FCZ MPCCs,Candida albicans [2]; [8],0.25 µg/mL
same,FCZ MPCCs,Candida albicans [2]; [9],128 µg/mL
same,FCZ MPCCs,Candida albicans [2]; [10],0.125 µg/mL
same,FCZ MPCCs,Candida albicans [2]; [11],0.25 µg/mL
same,FCZ MPCCs,Candida albicans [2]; [12],4 µg/mL
same,FCZ MPCCs,Candida albicans [2]; [13],32 µg/mL
same,FCZ MPCCs,Candida albicans [2]; [14],0.5 µg/mL
same,FCZ MPCCs,Candida albicans [2]; [15],16 µg/mL
same,FCZ MPCCs,Candida albicans [2]; [16],0.5 µg/mL
same,FCZ MPCCs,Candida albicans [2]; [17],16 µg/mL
same,FCZ MPCCs,Candida albicans [2]; [18],64 µg/mL
same,FCZ MPCCs,Candida albicans [2]; [19],0.25 µg/mL
same,mass spectrometry spectra compared with the control culture,"Candida albicans [2]; DSY2260 C. albicans, cultures exposed up to 2 μg/ml FCZ, 15 h",indistinguishable

# Reference: patent publication US20120276577A1, “Method for Determining the Susceptibility of a Cell Strain to Drugs” (ASSISTANCE PUBLIQUE - HOPITAUX DE PARIS, priority 2009, published 2012)
